Data as given in patent publication EP3070175A1, “TEST FOR DETERMINING SUSCEPTIBILITY OR RESISTANCE TO POLYMYXINS IN ENTEROBACTERIACEAE” (Université de Fribourg, priority 2015, dated 2016).

Tested on: enterobacterial strains
Test: Polymyxin test: colorimetric detection of growth with polymyxin B as selective antibiotic
Assay type: cell-based, Enterobacteriaceae
Conditions: polymyxin B instead of colistin as selective antibiotic; all tested strains
Procedure: Each inoculum was prepared by mixing 1 öse (10 µl) of a fresh culture of the tested bacteria in 5 ml of sterile NaCl 0.85% (at a density of 3 Mac Farland, i.e. about 10^9 CFU/ml).
250 ml of reactive medium was prepared by mixing the compounds hereafter: • a broth powder of a non selective growth medium for bacteria, the Cation-Adjusted Mueller-Hinton broth (MHB-CA) : 6.25 g • a colour indicator, the phenol red : 0.0125 g • sterile distilled water 225 ml • sterile D (+)-glucose (10 %) anhydrous (sterilization by filtration) : 25 ml
The pH of the final reactive medium was adjusted to 6.6 and 6.7 with HCl 1M.
Colistin or polymyxin B was added or not at the concentration of 5 mg/L in the reactive medium. Standard colistin sulphate and polymyxin B were from Sigma Aldrich (Saint-Louis, France). Those antibiotic molecule powders were kept at 4°C before their use, whereas polymyxin dilutions were kept at -20°C.
For each strain, two wells of a plastic sterile plate with 96 shaped wells were inoculated in parallel with and without polymyxin (colistin sulphate or polymyxin B) in order to compare their colour change.
Plastic sterile plates were from Sarstedt (Nümbrecht, Germany). The tray may be prepared as follows : • 1. […]
The results of the tests were recorded at 10 min (checking for no spontaneous colour change in the well) and then every hour for a maximum of 4 hours by visual inspection. […]

Substance: polymyxin B
- Results of the method of the invention compared with colistin: Identical results
